Experimental data taken from patent publication US20030161787A1, “Method for the identification of agents and genes influencing cardiovascular function” (priority 2000, published 2003).

Tests used:
[1] = system: three-day old zebrafish larvae; experiment: Induction of arrhythmic heart beat in three-day old zebrafish larvae by arrhythmia-inducing drugs; details: low doses in medium; anaesthetized larvae, dissecting microscope
[2] = system: zebrafish larvae; experiment: Zebrafish larvae bathed in drug-containing medium; heart beat rate, contractility and blood flow monitored by microscope; format: in vivo; details: for effect on heart beat rate, contractility and blood flow (cardiac performance) of untreated fish: applied alone to the surrounding medium, 4 d old larvae (FIG. 4); for effect on heart beat rate, contractility and blood flow: drug added to bathing medium, 2 d old larvae, 100 μM (FIG. 1) or increasing concentrations (FIG. 2)
Description: About 50 zebrafish larvae were incubated for 2-7 d at 22-28° C. in petri dishes filled with 30 ml embryo medium.
(§1) At the day of the experiment 10 larvae were transferred to small petri dishes filled with 10 ml embryo medium, 0.5 ml MESAB solution and 10 μl of the respective drug (or +10 μl of a second drug) added from a 1000-fold stock solution prepared with DMSO, these three components were previously mixed in 50 ml plastic tubes (controls only receive 10 μl DMSO).
(§2) At certain time points the contractility of the heart and blood flow was monitored, and the heart rate was determined by counting the heart beat with the aid of a stereo-microscope.

[3] = system: nifedipine-treated zebrafish; experiment: Reversal of nifedipine-induced effects on the heart of zebrafish larvae by a second drug; format: in vivo
Description: Similarely, putative anti-arrhythmic agents can be identified by studying heart beats of teleost larvae which were bathed prior to or simultaneous with the addition of the agents in a solution of an arrhythmia-inducing drug.
as §1, §2

[4] = biological target: HERG (human ether-a-gogo-related gene) (Homo sapiens, UniProt Q12809); details: cited from earlier work
Chain of HERG (human ether-a-gogo-related gene) (Q12809 whole entry): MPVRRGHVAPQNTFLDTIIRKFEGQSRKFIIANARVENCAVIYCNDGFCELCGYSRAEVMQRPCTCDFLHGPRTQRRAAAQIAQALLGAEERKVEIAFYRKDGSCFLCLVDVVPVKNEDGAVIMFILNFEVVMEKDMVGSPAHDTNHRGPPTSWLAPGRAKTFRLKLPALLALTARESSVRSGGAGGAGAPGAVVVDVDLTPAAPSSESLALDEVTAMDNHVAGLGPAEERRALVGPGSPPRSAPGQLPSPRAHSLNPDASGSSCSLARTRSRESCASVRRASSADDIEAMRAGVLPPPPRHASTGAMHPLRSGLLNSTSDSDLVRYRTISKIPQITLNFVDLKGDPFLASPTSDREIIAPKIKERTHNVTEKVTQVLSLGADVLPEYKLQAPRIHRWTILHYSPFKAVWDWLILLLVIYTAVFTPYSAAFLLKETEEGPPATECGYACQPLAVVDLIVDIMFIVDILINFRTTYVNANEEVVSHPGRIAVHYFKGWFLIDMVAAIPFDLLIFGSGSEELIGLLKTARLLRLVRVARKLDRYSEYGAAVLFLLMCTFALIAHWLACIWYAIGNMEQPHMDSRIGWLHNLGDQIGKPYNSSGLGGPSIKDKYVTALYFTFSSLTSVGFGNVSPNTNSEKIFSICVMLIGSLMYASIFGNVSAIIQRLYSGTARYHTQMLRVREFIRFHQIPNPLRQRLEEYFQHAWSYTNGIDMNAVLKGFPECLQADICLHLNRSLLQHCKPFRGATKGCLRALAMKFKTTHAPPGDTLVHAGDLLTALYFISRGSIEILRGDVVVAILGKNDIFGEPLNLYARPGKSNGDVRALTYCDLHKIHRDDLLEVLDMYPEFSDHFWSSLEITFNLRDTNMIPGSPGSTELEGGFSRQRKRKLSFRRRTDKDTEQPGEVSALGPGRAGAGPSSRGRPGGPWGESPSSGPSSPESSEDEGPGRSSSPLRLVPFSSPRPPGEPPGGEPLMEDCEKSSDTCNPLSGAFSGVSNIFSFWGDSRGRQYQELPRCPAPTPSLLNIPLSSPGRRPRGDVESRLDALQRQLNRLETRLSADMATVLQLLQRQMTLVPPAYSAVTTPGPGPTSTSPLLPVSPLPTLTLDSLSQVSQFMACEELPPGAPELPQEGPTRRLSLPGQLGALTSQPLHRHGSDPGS

CC(C)(C)c1ccc(C(O)CCCN2CCC(C(O)(c3ccccc3)c3ccccc3)CC2)cc1 (stereo not shown) [terfenadine]
larvae with induced arrhythmic heart beat [1]: ~100 % of larvae

O=C(CCCN1CC=C(n2c(=O)[nH]c3ccccc32)CC1)c1ccc(F)cc1 [droperidol]
larvae with induced arrhythmic heart beat [1]: ~100 % of larvae

COC(=O)C1=C(C)NC(C)=C([N+](=O)[O-])C1c1ccccc1C(F)(F)F (racemic) [Bay K 8644, 1,4-dihydro-2,6-dimethyl-5-nitro-4-[2′-(trifluoromethyl)phenyl]-3-pyridinecarboxylic acid methyl ester]
effect on heart beat rate, contractility and blood flow (cardiac performance) of untreated fish [2]: nearly negligible effects
effect on heart beat rate, contractility and blood flow (cardiac performance) of untreated fish ([2]; listed as (+/−)Bay K 8644): nearly no effect
re-animation of larvae with arrest of the heart beat ([3]; arrest induced by 50 μM nifedipine for 1 h, added to bathing solution, 3 d old larvae (FIG. 5)): re-animated within minutes
contractility of nifedipine-treated zebrafish ([3]; nifedipine-treated larvae (FIG. 3)): strong increase in contractility
blocking of the effects of nifedipine ([3]; simultaneous addition with nifedipine, 4 d old larvae (FIG. 3)): completely blockable

COc1ccc(CCN(C)CCCC(C#N)(c2ccc(OC)c(OC)c2)C(C)C)cc1OC (stereo not shown) [verapamil]
effect on heart beat rate, contractility and blood flow [2]: decrease in heart beat rate, contractility and blood flow

CSc1ccc2c(c1)N(CCC1CCCCN1C)c1ccccc1S2 (stereo not shown) [thioridazine]
larvae with induced arrhythmic heart beat [1]: ~100 % of larvae

O=C(CCCN1CCC(O)(c2ccc(Cl)cc2)CC1)c1ccc(F)cc1 [haloperidol]
block of HERG [4]: high affinity block
larvae with induced arrhythmic heart beat [1]: ~100 % of larvae

COc1ccc(CCN2CCC(Nc3nc4ccccc4n3Cc3ccc(F)cc3)CC2)cc1 [astemizole]
larvae with induced arrhythmic heart beat [1]: ~100 % of larvae

O=c1[nH]c2ccccc2n1C1CCN(CCCC(c2ccc(F)cc2)c2ccc(F)cc2)CC1 [pimozide]
larvae with induced arrhythmic heart beat [1]: ~100 % of larvae

CC(C)NCC(O)COc1cccc2ccccc12 (stereo not shown) [propanolol]
effect on heart beat rate, contractility and blood flow [2]: decrease in heart beat rate, contractility and blood flow

COc1cc(N)c(Cl)cc1C(=O)NC1CCN(CCCOc2ccc(F)cc2)CC1OC (stereo not shown) [cisapride]
block of HERG [4]: high affinity block
larvae with induced arrhythmic heart beat [1]: ~100 % of larvae
